Reference: US20100190747A1, “Fused ring compound and use thereof” (priority 2009, published 2010)

How the values were obtained:
delta-5-desaturase = biological target: T1, delta-5-desaturase (Rattus norvegicus, UniProt Q920R3); experiment: Inhibitory activity on delta-5-desaturase (rat liver microsomal fraction, 14C-eicosatrienoic acid, TLC); assay type: biochemical; settings: test compound at 10 μM, room temperature, 120 minutes
T1 construct: the microsomal fraction of a rat river (10 μl), which had been diluted to 3 mg/ml; from tissue; host or cells: rat liver microsomal fraction
Summary of the method: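 Rat liver microsomes (3 mg/ml before addition) incubated with test compound at 10 μM, NADH, ATP, CoA and 14C-eicosatrienoic acid in phosphate buffer pH 7.4 with BSA and glutathione, 120 min at room temperature. Lipids saponified, extracted, separated by reverse-phase TLC and imaged; % inhibition reported.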

[1] = test system: atherogenic diet fed apoE-deficient mice; experiment: Anti-atherosclerotic and anti-obesity effects in atherogenic diet fed apoE-deficient mice; assay type: in vivo; settings: 10 mg/kg/day p.o. for 15 weeks, male apoE-deficient mice on high fat diet, vehicle group taken as 100%; for Reduction in atherosclerotic lesion area (%): aorta, oil red O staining
Protocol: Assessments of anti-atherosclerotic effects and anti-obesity effects on atherogenic diet fed apoE-deficient mice were performed by the method described below.
Male apoE-deficient mice of 11-13 week-age (Jacson Lab) conditioned with ordinary diet (Research Diet) in separate cages were allowed to take high fat diet (Research Diet) at libitum for 14 weeks to thereby form atherosclerotic lesions in the aorta. The test compound suspended in 0.5% methyl cellulose solution was forcedly and orally administered to the mice at 10 ml/kg everyday for 15 weeks from 1 week prior to the start of the high fat diet feeding. Body weights were measured on the day of autopsy. The body weight reduction ratio of test compound-administered group was calculated taking the body weight of vehicle-administered group as 100%, to thereby obtain an index for anti-obesity effects. The aorta (from immediately above the aortic valve to the ventral branch of common iliac artery) removed under anesthesia was totally incised after removal of adipose tissue, etc. adhering to the outer membrane of the aorta, to thereby prepare an incised aorta specimen. After formalin fixing, the incised aorta specimen was subjected to staining with oil red O. The thus stained incised aorta specimen was photographed with a digital camera. Subsequently, image analysis using Image Pro program (Planetron, Inc.) was performed to determine the area of atherosclerotic lesions stained red and the total area of the incised specimen (the area of vascular inner wall). The ratio of atherosclerotic lesions (%) was calculated by dividing the area of atherosclerotic lesions by the area of vascular inner wall. The reduction ratio of the atherosclerotic lesion area (%) in test compound-administered group was calculated taking the area of atherosclerotic lesions in vehicle-administered group as 100%, to thereby obtain an index for anti-atherosclerotic effects. All the measurement of the ratio of atherosclerotic lesions was performed in a blind fashion.

ob/ob mice = experiment: Anti-diabetic effects in ob/ob mice, a type 2 diabetic model; assay type: in vivo; settings: 10 mg/kg/day p.o. once a day for 6 weeks; male ob/ob mice; vehicle group 7.1%
Protocol: Anti-diabetic effects in ob/ob mice, a type 2 diabetic model were evaluated as describe next.
Male 9-week-old ob/ob mice (Charls river) habituated for a week were housed individually and freely fed a normal chow (CE-2, Japan Clea). The test compound was suspended in 0.5% methylcellulose solution. Vehicle (0.5% methylcellulose) or the compound was orally administered (5 mL/kg) once a day for 6 weeks. At the end of the treatment, bloods were collected from tail vein. The levels of glycosylated hemoglobin were measured as an index of diabetes severity using automated GHb analyzer (TOSOH Corporation).

T1 sequence (Q920R3 whole entry): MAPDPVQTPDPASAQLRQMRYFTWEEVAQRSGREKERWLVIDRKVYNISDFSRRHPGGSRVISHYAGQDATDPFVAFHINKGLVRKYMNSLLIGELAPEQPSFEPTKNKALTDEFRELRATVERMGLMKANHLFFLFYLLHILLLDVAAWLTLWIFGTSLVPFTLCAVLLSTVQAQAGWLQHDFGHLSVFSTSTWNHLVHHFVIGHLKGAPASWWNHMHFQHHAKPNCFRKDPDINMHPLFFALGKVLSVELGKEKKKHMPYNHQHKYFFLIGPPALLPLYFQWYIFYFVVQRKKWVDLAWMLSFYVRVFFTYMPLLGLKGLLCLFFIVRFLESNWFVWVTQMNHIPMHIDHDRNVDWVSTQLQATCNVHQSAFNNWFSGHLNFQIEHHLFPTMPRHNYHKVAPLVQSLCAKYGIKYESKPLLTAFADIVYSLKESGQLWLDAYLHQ

| Compound | inhibition at 10 µM (delta-5-desaturase) [%] | further results |
| --- | --- | --- |
| O=C1Cc2c(nc(OCC(F)(F)C(F)(F)F)n(-c3ccc(OCC(F)(F)F)cc3)c2=O)N1 [Example 326, 2-(2,2,3,3,3-Pentafluoropropoxy)-3-[4-(2,2,2-trifluoroethoxy)phenyl]-5,7-dihydro-3H-pyrrolo[2,3-d]pyrimidine-4,6-dione] | 102 | Reduction in atherosclerotic lesion area (%) [1]: 41%; Reduction in body weight (%) [1]: 11%; Glycosylated hemoglobin (%) (ob/ob mice): 6.0% |
| O=C1Cc2c(nc(OCC(F)(F)F)n(-c3ccc(OCC(F)(F)F)cc3)c2=O)N1 [Example 274, 2-(2,2,2-Trifluoroethoxy)-3-[4-(2,2,2-trifluoroethoxy)phenyl]-5,7-dihydro-3H-pyrrolo[2,3-d]pyrimidine-4,6-dione] | 100 | Reduction in atherosclerotic lesion area (%) [1]: 26%; Reduction in body weight (%) [1]: 8% |
| O=C1Cc2c(nc(SCC3CC3)n(-c3ccc(OCC(F)(F)F)cc3)c2=O)N1 [Example 297, 2-[(Cyclopropylmethyl)sulfanyl]-3-[4-(2,2,2-trifluoroethoxy)phenyl]-5,7-dihydro-3H-pyrrolo[2,3-d]pyrimidine-4,6-dione] | 101 | Reduction in atherosclerotic lesion area (%) [1]: 26%; Reduction in body weight (%) [1]: 8% |
| CCOCCCSc1nc2[nH]ccc2c(=O)n1-c1ccc(OCC(F)(F)F)cc1 [Example 213, 2-[(3-Ethoxypropyl)sulfanyl]-3-[4-(2,2,2-trifluoroethoxy)phenyl]-3,7-dihydro-4H-pyrrolo[2,3-d]pyrimidin-4-one] | 100 | – |
| CCOc1ccc(-n2c(SCC(=O)NCCC#N)nc3[nH]ccc3c2=O)cc1 [Example 173, N-(2-cyanoethyl)-2-{[3-(4-ethoxyphenyl)-4-oxo-4,7-dihydro-3H-pyrrolo[2,3-d]pyrimidin-2-yl]sulfanyl}acetamide] | 97 | – |
| O=c1c2cc[nH]c2nc(SCC(O)COC2CCOCC2)n1-c1ccc(OCC(F)(F)F)cc1 (stereo not drawn) [Example 219, 2-{[2-Hydroxy-3-(tetrahydro-2H-pyran-4-yloxy)propyl]sulfanyl}-3-[4-(2,2,2-trifluoroethoxy)phenyl]-3,7-dihydro-4H-pyrrolo[2,3-d]pyrimidin-4-one] | 102 | – |
| CS(=O)(=O)CCCSc1nc2cc[nH]c2c(=O)n1-c1ccc(OCC2CC2)cc1 [Example 154, 3-[4-(Cyclopropylmethoxy)phenyl]-2-{[3-(methylsulfonyl)propyl]sulfanyl}-3,5-dihydro-4H-pyrrolo[3,2-d]pyrimidin-4-one] | 99 | – |
| CC(C)Oc1nc2c(c(=O)n1-c1ccc(OCC(F)(F)C(F)(F)F)cc1)CC(=O)N2 [Example 310, 2-(1-Methylethoxy)-3-[4-(2,2,3,3,3-pentafluoropropoxy)phenyl]-5,7-dihydro-3H-pyrrolo[2,3-d]pyrimidine-4,6-dione] | 99 | – |
| CC(C)(C)COc1ccc(-n2c(SCCCC(=O)NCCC#N)nc3[nH]ccc3c2=O)cc1 [Example 174, N-(2-cyanoethyl)-4-({3-[4-(2,2-dimethylpropoxy)phenyl]-4-oxo-4,7-dihydro-3H-pyrrolo[2,3-d]pyrimidin-2-yl}sulfanyl)butanamide] | 100 | – |
| COCCOCCCSc1nc2cc[nH]c2c(=O)n1-c1ccc(OCC(F)(F)F)cc1 [Example 78, 2-{[3-(2-Methoxyethoxy)propyl]sulfanyl}-3-[4-(2,2,2-trifluoroethoxy)phenyl]-3,5-dihydro-4H-pyrrolo[3,2-d]pyrimidin-4-one] | 101 | – |
| CCSc1nc2[nH]ccc2c(=O)n1-c1ccc(OCC(F)F)cc1 [Example 248, 3-[4-(2,2-Difluoroethoxy)phenyl]-2-(ethylsulfanyl)-3,7-dihydro-4H-pyrrolo[2,3-d]pyrimidin-4-one] | 101 | – |
| O=c1c2[nH]ccc2nc(SCCO)n1-c1ccc(OCC2CC2)cc1 [Example 144, 3-[4-(Cyclopropylmethoxy)phenyl]-2-[(2-hydroxyethyl)sulfanyl]-3,5-dihydro-4H-pyrrolo[3,2-d]pyrimidin-4-one] | 101 | – |
| O=C1Cc2c(nc(OC(CF)CF)n(-c3ccc(OCC(F)(F)F)cc3)c2=O)N1 [Example 338, 2-[2-Fluoro-1-(fluoromethyl)ethoxy]-3-[4-(2,2,2-trifluoroethoxy)phenyl]-5,7-dihydro-3H-pyrrolo[2,3-d]pyrimidine-4,6-dione] | 100 | – |
| O=c1c2[nH]ccc2nc(SCCCOC2CCOCC2)n1-c1ccc(OCC(F)(F)F)cc1 [Example 158, 2-{[3-(Tetrahydro-2H-pyran-4-yloxy)propyl]sulfanyl}-3-[4-(2,2,2-trifluoroethoxy)phenyl]-3,5-dihydro-4H-pyrrolo[3,2-d]pyrimidin-4-one] | 99 | – |
| N#CCCNC(=O)CSc1nc2c(c(=O)n1-c1ccc(OCC(F)(F)F)cc1)CC(=O)N2 [Example 328, N-(2-cyanoethyl)-2-({4,6-dioxo-3-[4-(2,2,2-trifluoroethoxy)phenyl]-4,5,6,7-tetrahydro-3H-pyrrolo[2,3-d]pyrimidin-2-yl}sulfanyl)acetamide] | 97 | – |
| CCSc1nc2cc[nH]c2c(=O)n1-c1ccc(OCC2CC2)c(Cl)c1 [Example 162, 3-[3-Chloro-4-(cyclopropylmethoxy)phenyl]-2-(ethylsulfanyl)-3,5-dihydro-4H-pyrrolo[3,2-d]pyrimidin-4-one] | 103 | – |
| O=C1Cc2c(nc(SCC3CC3)n(-c3ccc(OCC(F)(F)F)c(F)c3)c2=O)N1 [Example 322, 2-[(Cyclopropylmethyl)sulfanyl]-3-[3-fluoro-4-(2,2,2-trifluoroethoxy)phenyl]-5,7-dihydro-3H-pyrrolo[2,3-d]pyrimidine-4,6-dione] | 101 | – |
| CC(C)(O)CCCSc1nc2cc[nH]c2c(=O)n1-c1ccc(OCC(F)(F)F)cc1 [Example 123, 2-[(4-Hydroxy-4-methylpentyl)sulfanyl]-3-[4-(2,2,2-trifluoroethoxy)phenyl]-3,5-dihydro-4H-pyrrolo[3,2-d]pyrimidin-4-one] | 101 | – |
| N#CCCNC(=O)CCCSc1nc2[nH]ccc2c(=O)n1-c1ccc(OCC2CC2)cc1 [Example 185, N-(2-cyanoethyl)-4-({3-[4-(cyclopropylmethoxy)phenyl]-4-oxo-4,7-dihydro-3H-pyrrolo[2,3-d]pyrimidin-2-yl}sulfanyl)butanamide] | 97 | – |
| O=C(CCCSc1nc2cc[nH]c2c(=O)n1-c1ccc(OCC(F)(F)F)cc1)N1CCCCC1 [Example 77, 2-[(4-Oxo-4-piperidin-1-ylbutyl)sulfanyl]-3-[4-(2,2,2-trifluoroethoxy)phenyl]-3,5-dihydro-4H-pyrrolo[3,2-d]pyrimidin-4-one] | 100 | – |
